Publication PMC7395068, “The evolution of strategies to minimise the risk of human drug-induced liver injury (DILI) in drug discovery and development” (Archives of Toxicology, 2020)
Like-named read-outs stand apart in the source and are kept apart here.

How the values were obtained:
[1] = Plasma free fraction (fu) and unbound Cmax (Cmax,u); type: in vitro ADME, human; conditions: unbound plasma Cmax
Experimental: The prediction of DILI severity was evaluated further using the 3D combined HCI assays using plasma-free fraction. The majority of fu values were obtained from literature, when unavailable in-house prediction was utilised. Unbound plasma Cmax concentrations (Cmax,u) were derived by multiplying total plasma Cmax with the corresponding free fraction (fu) for each compound.

[2] = cited from earlier work
[3] = tested on: primary human hepatocytes, NIH3T3 fibroblasts, BSEP, CYP3A4; conditions: cited from earlier work
HepG2 cells = conditions: cited from earlier work
human hepatocytes = conditions: cited from earlier work
[4] = tested on: THLE or HepG2 cells, isolated mitochondria, BSEP; conditions: cited from earlier work
PHH = conditions: cited from earlier work
hLiMTs [5] = conditions: cited from earlier work
PHH spheroids = conditions: cited from earlier work
[6] = tested on: HepG2 C3A spheroid, BSEP, Glu/Gal in HepG2 cells, bioactivation; conditions: cited from earlier work
[7] = read-out: Human plasma Cmax; total plasma Cmax.tot, median of 9 literature references; cited from earlier work
[8] = plasma free fraction; cited from earlier work
[9] = cited from earlier work; remark: listed apart in the source
[10] = tested on: THLE-Null and THLE-3A4 cells; conditions: In vitro Assay; ref Gustafsson 2014; cited from earlier work
[11] = tested on: HepG2 cells, primary human hepatocytes; conditions: In vitro Assay; ref Garside 2014; cited from earlier work
[12] = ref Chen 2011; cited from earlier work
rBsep = conditions: In vitro Assay; ref Dawson 2012; cited from earlier work
hLiMTs [13] = assay: Combined HCI (HCS) and cellular ATP 3D assay in hLiMTs; conditions: for AC50 / minimal effective concentration: Homo sapiens
HepaRG spheroids = assay: Combined HCI (HCS) and cellular ATP 3D assay in HepaRG spheroids; conditions: for AC50 / minimal effective concentration: Homo sapiens
[14] = In vitro Assay, ref Schadt 2015
[15] = In vitro Assay, ref Persson 2013
[16] = Modeled in vitro assays (cytotoxicity, mitochondrial dysfunction, BSEP), ref Aleo et al. 2019
[17] = In vitro Assay, ref Proctor 2017
[18] = Microtissue model structural based (HCI), combined HCS and ATP, MEC < 25 × Cmax.tot cut-off

CCc1nn(CCCN2CCN(c3cccc(Cl)c3)CC2)c(=O)n1CCOc1ccccc1 [nefazodone, reference compound]
Human plasma Cmax,u [1]: 0.043 µM
DILI severity category (Chen et al. [2016]) ([2]; LTKB DILIrank category, ref Chen et al. 2016): Most
DILI severity category (Chen 2016) ([2]; human DILI classification, LTKB DILIrank, ref Chen et al. 2016): Most
DILI severity category ([2]; human DILI severity, ref Chen et al.): Most
DILI +VE (5-8), DILI -VE (-4) ([2]; ref Chen 2016): +VE
DILI severity category ([2]; ref Chen 2016): vMost-DILI-Concern
DILI in vitro assay prediction, Schadt (2015) ([3]; BSEP & Metabolism based, ref Schadt et al. 2015): +VE
Cellular toxicity (3T3 cells) [3, 14]: -VE
Combined Assay [3, 14]: +VE
GSH adduct HML [3, 14]: +VE
Hepatocyte cellular toxicity [3, 14]: +VE
MitoTox 3T3 [3, 14]: +VE
TDI CYP3A4 [3, 14]: +VE
hBSEP inhibition [3, 14]: +VE
Cluser analysis (HepG2 cells; [15]): +VE
Structural based (HCI) (HepG2 cells; [15]): +VE
DILI in vitro assay prediction, Persson (2013) (HepG2 cells; Structural based (HCI), HepG2, ref Persson et al. 2013): +VE
Structural based (HCI) (human hepatocytes; In vitro Assay, ref Xu 2008): +VE
DILI in vitro assay prediction, Xu (2008) (human hepatocytes; Structural based (HCI), human hepatocytes, ref Xu et al. 2008): +VE
Partition Hybrid HRM Score ([4]; In vitro Assay, ref Aleo 2019): +VE
Ro2 Hybrid HRM Score ([4]; In vitro Assay, ref Aleo 2019): +VE
Partition Hybrid HRM Score ≥4, Aleo (2019) [4, 16]: +VE (Partition Hybrid HRM Score ≥4)
Partition Hybrid HRM Score ≥8, Aleo (2019) [4, 16]: +VE (Partition Hybrid HRM Score ≥8)
Rule of Two hybrid HRM Score ≥3, Aleo (2019) [4, 16]: +VE (Rule of Two hybrid HRM Score ≥3)
Rule of Two hybrid HRM Score ≥8, Aleo (2019) [4, 16]: +VE (Rule of Two hybrid HRM Score ≥8)
PHH/100xCmax, Proctor (2017) (PHH; 2D PHH, ATP, IC50 < 100 × Cmax.tot, ref Proctor et al. 2017): +VE (IC50 < 100 × Cmax.tot)
PHH/100uM, Proctor (2017) (PHH; 2D PHH, ATP, IC50 threshold 100 µM, ref Proctor et al. 2017): +VE (IC50 threshold of 100 µM)
PHH ATP <100uM (PHH; [17]): +VE (IC50 threshold of 100 µM)
hLiMTs ATP <100uM (hLiMTs [5]; [17]): +VE (IC50 threshold of 100 µM)
hLiMTs/100xCmax, Proctor (2017) (hLiMTs [5]; hLiMTs, ATP, IC50 < 100 × Cmax.tot, ref Proctor et al. 2017): +VE (IC50 < 100 × Cmax.tot)
hLiMTs/100uM, Proctor (2017) (hLiMTs [5]; hLiMTs, ATP, IC50 threshold 100 µM, ref Proctor et al. 2017): +VE (IC50 threshold of 100 µM)
hLiMTs ATP <20 x Cmax (PHH spheroids; In vitro Assay, ref Vorrink 2018): +VE (IC20 < 20 × Cmax.tot cut-off)
DILI in vitro assay prediction, Vorrink (2018) (PHH spheroids; PHH spheroids, ATP, 14 days, IC20 < 20 × Cmax.tot, ref Vorrink et al. 2018): +VE (IC20 < 20 × Cmax.tot cut-off)
Bayesian Machine Learning DILI prediction, Williams (2019) ([6]; Bayesian modeling, ref Williams et al. 2019): +VE
Bayesian Machine Learning ([6]; In vitro Assay, ref Williams 2019): +VE
Cmax [7]: 4.25 µM
fu [8]: 0.010
Assigned DILI category ([9]; Chen et al. 2016 or literature alignment, ref Chen et al. 2016): 3
In vivo DILI ([9]; […]): +VE
In vivo DILI ([9]; ref Aleo 2019): +VE
In vivo DILI ([9]; ref Dawson 2012): +VE
In vivo DILI ([9]; ref Garside 2014): +VE
In vivo DILI ([9]; ref Gustafsson 2014): +VE
In vivo DILI ([9]; ref Persson 2013): +VE
In vivo DILI ([9]; ref Proctor 2017): +VE
In vivo DILI ([9]; ref Schadt 2015): +VE
In vivo DILI ([9]; ref Vorrink 2018): +VE
In vivo DILI ([9]; ref Williams 2019): +VE
In vivo DILI ([9]; ref Xu 2008): +VE
THLE-Null [10]: +VE
THLE-Null/3A4 [10]: +VE
Cluster 1-6 +VE Assay [11]: +VE
DILI Score (FDA) (1-8) [12]: 8
Inhibition of rBsep cutoff<1& cmax u>.2 (rBsep): +VE
Inhibition of rBsep cutoff<3 (rBsep): +VE
AC50 (hLiMTs [13]; read-out: ATP endpoint AC50): 12.1 µM
minimal effective concentration (hLiMTs [13]; read-out: ATP endpoint MEC): 8.98 µM
AC50 (hLiMTs [13]; read-out: HCS endpoint AC50): 23.4 µM
minimal effective concentration (hLiMTs [13]; read-out: HCS endpoint MEC): 13.8 µM
DILI prediction hLiMTs (HCS-MEC) (hLiMTs [13]; [18]): +VE (MEC < 25 × Cmax.tot cut-off)
hLiMTs <25x Avg Cmax ATP (hLiMTs [13]; hLiMTs, ATP endpoint, cut-off <25x Avg Cmax): +ve
hLiMTs <100x Avg Cmaxu ATP (hLiMTs [13]; hLiMTs, ATP endpoint, cut-off <100x Avg Cmaxu): -ve
hLiMTs <25x Avg Cmax HCS (hLiMTs [13]; hLiMTs, HCS endpoints, cut-off <25x Avg Cmax): +ve
hLiMTs <100x Avg Cmaxu HCS (hLiMTs [13]; hLiMTs, HCS endpoints, cut-off <100x Avg Cmaxu): -ve
hLiMTs <25x Avg Cmax All (hLiMTs [13]; hLiMTs, all endpoints (ATP and HCS), cut-off <25x Avg Cmax): +ve
hLiMTs Cmax max All (hLiMTs [13]; hLiMTs, all endpoints, Cmax max used): +ve
hLiMTs Cmax min All (hLiMTs [13]; hLiMTs, all endpoints, Cmax min used): +ve
hLiMTs <10 uM All (hLiMTs [13]; hLiMTs, all endpoints, cut-off <10 uM): +ve (<10 uM)
hLiMTs <100x Avg Cmaxu All (hLiMTs [13]; hLiMTs, all endpoints, cut-off <100x Avg Cmaxu): -ve
HepaRG <25x Avg Cmax ATP (HepaRG spheroids; HepaRG, ATP endpoint, cut-off <25x Avg Cmax): +ve
HepaRG <100x Avg Cmaxu ATP (HepaRG spheroids; HepaRG, ATP endpoint, cut-off <100x Avg Cmaxu): -ve
HepaRG <25x Avg Cmax HCS (HepaRG spheroids; HepaRG, HCS endpoints, cut-off <25x Avg Cmax): +ve
HepaRG <100x Avg Cmaxu HCS (HepaRG spheroids; HepaRG, HCS endpoints, cut-off <100x Avg Cmaxu): -ve
HepaRG <25x Avg Cmax All (HepaRG spheroids; HepaRG, all endpoints (ATP and HCS), cut-off <25x Avg Cmax): +ve
HepaRG Cmax max All (HepaRG spheroids; HepaRG, all endpoints, Cmax max used): +ve
HepaRG Cmax min All (HepaRG spheroids; HepaRG, all endpoints, Cmax min used): +ve
HepaRG <10 uM All (HepaRG spheroids; HepaRG, all endpoints, cut-off <10 uM): +ve (<10 uM)
HepaRG <100x Avg Cmaxu All (HepaRG spheroids; HepaRG, all endpoints, cut-off <100x Avg Cmaxu): -ve
AC50 (HepaRG spheroids; HepaRG, read-out: ATP endpoint AC50): 19.4 µM
minimal effective concentration (HepaRG spheroids; HepaRG, read-out: ATP endpoint MEC): 11.6 µM
AC50 (HepaRG spheroids; HepaRG, read-out: HCS endpoint AC50): 23.8 µM
minimal effective concentration (HepaRG spheroids; HepaRG, read-out: HCS endpoint MEC): 5.67 µM
DILI prediction HepaRG spheroids (HCS-MEC) (HepaRG spheroids; [18]): +VE (MEC < 25 × Cmax.tot cut-off)
